This assay has as its target UPR counterscreen luciferase reporter, luminescence. In words: luciferase reporter activation, UPR counterscreen line – cell-based, luminescence, counter-screen for adaptive UPR activator project, dose response (AID 489027). In general terms: In a reporter assay the amount or activity of a reporter protein is the signal.

Structures are written as SMILES. Active and inactive are the calls of the source. No rule for the calls is given here.

A word on the EC50: it is the concentration giving half of the maximal effect.

Regarding `O=C(Nc1nc(-c2ccc3ccccc3c2)cs1)c1ccc(N2C(=O)CCC2=O)cc1`, the EC50 is > 80 µM (inactive).
As for `O=C(Nc1ccc2oc(-c3ccccc3Cl)nc2c1)c1cncc(Br)c1`, the figure is > 80 µM (inactive); as for `Cc1ccc(-c2nnn(CC(=O)Nc3ccc(S(=O)(=O)N4CCC(C)CC4)cc3)n2)cc1`, “inactive”; as for `C=CCn1c(O)c(C2=c3ccccc3=NC2=O)sc1=Nc1ccc(O)cc1`, 18.3 µM.
Then `CCOC(=O)c1nn(-c2ccc(OCC)cc2)c2nc(-c3ccco3)c(C#N)c(=O)n12`, with “inactive”; and `Cc1ccc2c(c1)C(=O)C(=O)N2Cc1ccc(Br)cc1`, with “inactive”; and `Cn1nnnc1Sc1ncnc2scc(-c3ccc(Br)cc3)c12`, with 17.1 µM.
As for `N#CCC(=O)N/N=C/c1cn(Cc2cccc3ccccc23)c2ccccc12`, the figure is > 80 µM (inactive); as for `Cc1ccc2nc(-c3ccc(NC(=S)NC4CC(C)(C)NC(C)(C)C4)cc3)sc2c1`, 9.04 µM; as for `CCOc1ccccc1CNC(=O)C1CCN(c2nnc(C)c3c(C)n(-c4ccc(C)cc4)nc23)CC1`, > 80 µM (inactive).
Regarding `Cc1ccc2c(c1)C(c1ccc(N3CCOCC3)cc1)=NNC(c1cccs1)=N2`, the EC50 result is “inactive”.
As for `COc1cc(-c2noc(C)c2/C=C/c2ccc(OC(C)=O)cc2)cc(OC)c1OC`, the figure is > 80 µM (inactive); as for `O=c1[nH]c(-c2ccc(-c3cccc(Cl)c3)o2)nc2ccccc12`, 11.9 µM.
As for `CCOc1ccc2nc(NC3=NC(c4ccc(OC)cc4)CC(=O)N3)nc(C)c2c1` (stereo not drawn), the figure is 11.8 µM; as for `COc1cc(/C=C(\C#N)c2nc3ccccc3[nH]2)cc(Br)c1OCc1ccc(F)cc1`, 15.3 µM; as for `O=C(NCC1CC1)c1cccc2c1C(=O)c1ccc(-c3ccc(OC(F)(F)F)cc3)cc1S2(=O)=O`, > 80 µM (inactive).
Then `Cc1ccc2c(c1)C(=O)C(=O)N2Cc1ccc(C(F)(F)F)cc1`, with “inactive”; and `COc1ccc(C2CC(c3c(-c4ccccc4)c4cc(Cl)ccc4[nH]c3=O)=NN2S(C)(=O)=O)cc1` (stereo not drawn), with > 80 µM (inactive); and `CC(C)c1ccc(C2C3=C(COC3=O)Nc3cc4c(cc32)OCO4)cc1` (stereo not drawn), with “inactive”.
On to `CCN(CC)CCn1c(SCC(=O)Nc2ccc(F)cc2)nc2c(sc3ccccc32)c1=O`, for which the EC50 was > 80 µM (inactive).
As for `N#C/C(=C\c1ccc(OCc2ccccc2)cc1)C(=O)Nc1nc2c(s1)CCN(Cc1ccccc1)C2`, the figure is 13.3 µM; as for `COc1ccc2nc(NC(=O)c3cccc(-c4cc5ccccc5oc4=O)c3)sc2c1`, > 80 µM (inactive).
Then `Oc1cccc(-c2nc3c4c(ncn3n2)-c2ccccc2CC42CCCC2)c1`, with 18.6 µM; and `COc1ccc(-c2nn(-c3ccccc3)cc2/C=C/C(=O)OCC(=O)Nc2cccc(C#N)c2)cc1`, with > 80 µM (inactive); and `COc1ccc(NC(=O)C(=O)N/N=C\c2ccc(CNC(=O)C(=O)Nc3ccc(C)c(C)c3)o2)c(OC)c1`, with 4.19 µM.
As for `Cc1ccc(C(C)C)c(OCc2ccc(C(=O)N/N=C/c3ccc(O)c(O)c3)cc2)c1`, the figure is 4.95 µM; as for `Clc1ccc(-c2ccc(/C=N/Nc3nncc(-c4ccccc4)n3)o2)cc1`, 13.6 µM.
For the compound `O=C(O)c1ccc(N2C(=O)/C(=C/c3ccc(-c4ccc([N+](=O)[O-])cc4)o3)C=C2c2ccccc2)cc1`, the EC50 was > 80 µM (inactive).
Regarding `CCCC[C@@H](C)C[C@@H](C)C(=O)N(C)[C@@H](CC(C)C)C(=O)N[C@H](C(=O)N(C)[C@H](C(=O)N1C[C@@H](O)C[C@H]1C(=O)N1C(=O)C=C[C@@H]1C)C(C)C)C(C)OC(C)=O` (stereo partly drawn), the concentration for a half-maximal effect (EC50) was 7.75 µM.
As for `Brc1ccc(-c2ccc(/C=N/Nc3nncc(-c4ccccc4)n3)o2)cc1`, the figure is 17.4 µM; as for `CCCCCCCCCn1c2c(c(=N)c3c1CCC3)CCCC2`, 9 µM; as for `N#Cc1ccc(N/N=C/c2cn(-c3ccccc3)nc2-c2ccccc2)c([N+](=O)[O-])c1`, “inactive”.
Then `CCC(=O)Nc1ccc(-c2cc(-c3ccccc3)nc(-c3ccc(NC(=O)CC)cc3)n2)cc1`, with > 80 µM (inactive); and `Cc1nc2ccccc2n1-c1nc(-c2ccco2)cc(C(F)(F)F)n1`, with 11.1 µM.
Then `CCCCNc1c(-c2ccc(SC(C)CC)cc2)nc2cnccn12` (stereo not drawn), with 14.1 µM; and `O=C(Nc1nc2ccc(Cl)cc2s1)c1ccc(N2CCCCC2)c([N+](=O)[O-])c1`, with “inactive”.
`NC1=NC[C@@H](CC2CCCCC2)N1CCc1cc(C(F)(F)F)cc(C(F)(F)F)c1`: the EC50 is > 80 µM (inactive).
As for `COc1cccc2sc(N3CCN(c4nc5ccccc5s4)CC3)nc12`, the figure is 16.8 µM; as for `CCCCCCCCCCOC(=O)Cn1c(COc2ccc(OC)cc2)[n+](C)c2ccccc21`, 18.8 µM; as for `Cc1ccc2c(c1)C(=O)C(=O)N2Cc1ccc(Cl)cc1`, “inactive”.
As for `COc1ccc(C2NCCc3c2[nH]c2ccccc32)cc1COc1ccc(F)cc1` (stereo not drawn), the figure is 18.3 µM; as for `COc1ccccc1Nc1nnc(SCC(=O)NC(=O)Nc2ccc3c(c2)OCCO3)s1`, > 80 µM (inactive).
Then `N#C/C(=C\Nc1ccc2cn[nH]c2c1)c1nc(-c2ccc(Cl)cc2)cs1`, with “inactive”.
`NS(=O)(=O)c1ccc(N=Cc2c(O)n(C3CCCCC3)c(=O)n(C3CCCCC3)c2=O)cc1`: the EC50 is 14.6 µM.
For `Brc1cc(Br)c2ncnc(N3CCCCC3)c2c1`, the EC50 entry is “inactive”.
Then `OCCCn1c(C2CCCN2c2nc(-c3ccc(F)cc3)cs2)nc2cc(Cl)c(N3CCCCC3)cc21` (stereo not drawn), with > 80 µM (inactive); and `CN(/N=C\c1ccc(O)c(O)c1)c1nc(-c2ccccc2)cc(-c2ccccc2)n1`, with 7.52 µM.
With `Cc1cc(C)c2sc(N(CCCN(C)C)C(=O)c3ccc(S(=O)(=O)N4CCCc5ccccc54)cc3)nc2c1`, the EC50 was > 80 µM (inactive).
Then `O=C(C[C@@H]1C/C=C/CC[C@H](Cc2ccc(F)cc2)C(=O)OC[C@@H](Cc2ccccc2)NC1=O)N[C@H](CO)Cc1ccccc1`, with 14.4 µM.
Turning to `Cc1ccc(Nc2nc(NCc3ccco3)c3ccccc3n2)cc1`, the EC50 is > 80 µM (inactive).
As for `COc1cc(/C=C/c2ccc3cccc(O)c3n2)ccc1O`, the figure is 7.62 µM.
As for `CN(C)CCCN(C(=O)c1ccc(S(=O)(=O)N2CCc3ccccc3C2)cc1)c1nc2ccc(F)cc2s1`, the figure is 8.2 µM; as for `Cc1cc(NC(=O)CSc2nc3sc(C)c(C)c3c(=O)n2C2CCCC2)no1`, > 80 µM (inactive); as for `COc1ccc(-c2sc3ccccc3c2-c2ccc(OCCN(C)C)cc2)cc1`, 13.3 µM.
As for `O=C(C[C@H]1C/C=C\C[C@@H](NC(=O)OCC2c3ccccc3-c3ccccc32)C(=O)O[C@@H](c2ccccc2)CNC1=O)N[C@H](CO)Cc1ccccc1`, the figure is 18.1 µM; as for `CCOC(=O)/C(=N\Nc1ccc(C(C)=O)cc1)c1csc(Nc2ccccc2)n1`, “inactive”.
For `Cc1nn(-c2ccccc2)c(C)c1/C=N/NC(=O)CSc1nc2ccccc2c(=O)n1-c1ccc(Br)cc1`, the 50% effective concentration (EC50) was 7.19 µM.
Turning to `Clc1ccc2c(c1)C(N1CCNCC1)Cc1ccccc1S2` (stereo not drawn), the EC50 is > 80 µM (inactive).
Turning to `CCOC(=O)c1nnc(-c2ccc(C)cc2)nc1Oc1ccccc1Cl`, the EC50 entry was “inactive”.
Then `N#C/C(=C\c1ccc(N2CCCC2)c([N+](=O)[O-])c1)c1nc2ccccc2[nH]1`, with > 80 µM (inactive); and `O=C(NCc1ccccc1Cl)c1cccc2c1C(=O)c1ccc(-c3ccc(OC(F)(F)F)cc3)cc1S2(=O)=O`, with 9.15 µM.
With `Cc1cccc(Nc2nc3c(S(=O)(=O)c4ccccc4)nnn3c3ccccc23)c1C`, the EC50 was 12.3 µM.
Then `Cc1ccc(S(=O)(=O)Cc2cc(F)c([N+](=O)[O-])cc2[N+](=O)[O-])cc1`, with > 80 µM (inactive).
Regarding `CCOC(=O)c1nnn2c1nc(Nc1cccc(C(F)(F)F)c1)c1ccccc12`, the EC50 was 10 µM.
As for `CC(=O)c1cccc(Nc2nc(-c3cccc([N+](=O)[O-])c3)cs2)c1`, the figure is > 80 µM (inactive); as for `N/C(=N\c1nc(CSc2ccccn2)cc(=O)[nH]1)Nc1ccc(Cl)cc1Cl`, > 80 µM (inactive); as for `Cc1cc(N2CCN(c3ccc([N+](=O)[O-])c4cccnc34)CC2)c2ccccc2n1`, “inactive”.
Then `CCOC(=O)c1c(NC(C)=O)sc2c(OCC(O)CNC(C)(C)C)c(Br)ccc12` (stereo not drawn), with > 80 µM (inactive).

The record behind these values is PubChem BioAssay AID489027 (Sanford-Burnham Center for Chemical Genomics, 2010).
